US7125883B1, “Integrin receptor ligands” (Abbott GmbH & Co. KG, priority 1999, dated 2006)

Target: integrin αvβ3 (Homo sapiens, UniProt P05106+P06756)
Experiment: Integrin αvβ3 assay (competition with vitronectin for binding to solid-phase integrin αvβ3)
Conditions: competition between human vitronectin and test substance for binding to integrin αvβ3 bound to a solid phase; only a ranking in words is given

Structure (SMILES)	IC50 values (concentration of the ligand at which 50% of the ligand is displaced)
O=C(O)C(F)(F)F.O=C(O)CC(Cn1cc(C2CCOCC2)c(NCCC(=O)Nc2ncc[nH]2)nc1=O)NC(=O)OCc1ccccc1 (stereo not shown) [Example I-61, 2-[(3-{[1-(2-{[(Benzyloxy)carbonyl]amino}-3-carboxy-propyl)-2-oxo-5-tetrahydro-2H-pyran-4-yl-1,2-dihydropyrimidin-4-yl]amino}propanoyl)amino]-1H-imidazol-1-ium trifluoroacetate]	best result
Cc1cn(CC(CC(=O)O)NC(=O)OCc2ccccc2)c(=O)nc1NCc1ccc(CNc2ccccn2)cc1.O=C(O)C(F)(F)F (stereo not shown) [Example I-54]	best result
O=C(O)C(F)(F)F.O=C(O)CC(Cn1cc(-c2ccccc2)c(NCCC(=O)Nc2ncc[nH]2)nc1=O)NC(=O)OCc1ccccc1 (stereo not shown) [Example I-63, 2-[(3-{[1-(2-{[(Benzyloxy)carbonyl]amino}-3-carboxy-propyl)-2-oxo-5-phenyl-1,2-dihydropyrimidin-4-yl]amino}-propanoyl)amino]-1H-imidazol-1-ium trifluoroacetate]	best result
CCCc1cn(C[C@H](NC(=O)OCc2ccccc2)C(=O)O)c(=O)nc1N1CCC(CNc2ccccn2)CC1.O=C(O)C(F)(F)F [Example I-64, 2-[({1-[1-((2S)-{[(Benzyloxy)carbonyl]amino}-2-carboxy-ethyl)-2-oxo-5-propyl-1,2-dihydropyrimidin-4-yl]-piperidin-4-yl}methyl)amino]pyridinium trifluoroacetate]	best result
